Reference: patent US10758522B2, “Small molecule analogs of the nemo binding peptide” (THE SCRIPPS RESEARCH INSTITUTE, priority 2015, dated 2020)
Entries after “also recorded” stand apart in the source; their conditions may differ.

Molecular target: T1, IKK complex (IKKß, IKKα and NEMO) (Homo sapiens, UniProt Q9Y6K9)
T1 construct: analyzed by Western blot for the level of co-precipitated NEMO; endogenous in cells; host or cells: 293 (HEK293) cells
Experiment: Co-immunoprecipitation of NEMO with IKKß in 293 cells
Type: cell-based
Details: Zinc-5 at 4 hours, Zinc-13 at 1 hour, NBD peptide at 4 hours
Excerpt: FIG. 8 is a bar graph showing the inhibition of TNFα by NBDA-1 (Zinc-13). […] In addition, we have examined the ability of the compounds to disrupt the IKK complex, comprised of IKKß, IKKα and NEMO.
A non-functional, related compound Zinc-7 had no effect.

T1 sequence (Q9Y6K9 whole entry, one chain of several): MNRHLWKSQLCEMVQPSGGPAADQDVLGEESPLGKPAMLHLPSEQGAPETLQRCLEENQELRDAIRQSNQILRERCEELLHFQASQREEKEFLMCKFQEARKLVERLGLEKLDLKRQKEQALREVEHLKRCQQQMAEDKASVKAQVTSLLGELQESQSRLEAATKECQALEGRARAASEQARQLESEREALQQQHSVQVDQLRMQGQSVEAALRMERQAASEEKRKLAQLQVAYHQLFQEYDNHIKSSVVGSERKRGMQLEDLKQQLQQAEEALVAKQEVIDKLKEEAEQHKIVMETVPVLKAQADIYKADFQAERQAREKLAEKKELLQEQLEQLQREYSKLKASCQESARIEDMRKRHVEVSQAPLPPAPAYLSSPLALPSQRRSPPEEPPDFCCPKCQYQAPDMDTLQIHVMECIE

Nc1ncccc1C(=O)OCC(=O)Nc1ccc(Cl)cc1F [NBDA-1, 2-((4-chloro-2-fluorophenyl)amino)-2-oxoethyl 2-aminonicotinate]
level of NEMO co-immunoprecipitated with IKKß: reduced the level of co-immunoprecipitated NEMO; also recorded: disrupt the interaction between IKKß and IKKgamma
